According to PubChem BioAssay (NCI):
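Step 1: Grow cells in 96-well plates. Step 2: Expose to compound for 48 hours at 5 concentrations. Step 3: Interpolate endpoints linearly; if unreached, use highest concentration. GI50 is the concentration that inhibits growth by half. TGI denotes the concentration required for complete inhibition of growth.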

Columns and labels:
Assay in all cases: NCI-60 cell line screen, 48 h
DU-145 prostate = test system: DU-145 prostate
EKVX NSCLC = test system: EKVX NSCLC
HCT-15 colon = test system: HCT-15 colon
HT29 colon = test system: HT29 colon
MCF7 breast = test system: MCF7 breast
NCI/ADR-RES ovarian = test system: NCI/ADR-RES ovarian
SF-268 CNS = test system: SF-268 CNS
SW-620 colon = test system: SW-620 colon
TK-10 renal = test system: TK-10 renal
UACC-62 melanoma = test system: UACC-62 melanoma

SMILES	GI50 (DU-145 prostate) [µM]	TGI (DU-145 prostate) [µM]	GI50 (EKVX NSCLC) [µM]	TGI (EKVX NSCLC) [µM]	GI50 (HCT-15 colon) [µM]	TGI (HCT-15 colon) [µM]	GI50 (HT29 colon) [µM]	TGI (HT29 colon) [µM]	GI50 (MCF7 breast) [µM]	TGI (MCF7 breast) [µM]	GI50 (NCI/ADR-RES ovarian) [µM]	TGI (NCI/ADR-RES ovarian) [µM]	GI50 (SF-268 CNS) [µM]	TGI (SF-268 CNS) [µM]	GI50 (SW-620 colon) [µM]	TGI (SW-620 colon) [µM]	GI50 (TK-10 renal) [µM]	TGI (TK-10 renal) [µM]	GI50 (UACC-62 melanoma) [µM]	TGI (UACC-62 melanoma) [µM]
O=Nc1c(-c2c(O)[nH]c3ccc(Br)cc23)[nH]c2ccccc12	3.01	11.8	3	15.5	2.72	8.4	8.3	> 100	2.21	8.48	4.24	63.4	3.75	22.6	3.64	9.41	3.77	> 100	4.96	15.1
O=C1OCC2=C1C(c1ccccc1)c1cc3c(cc1N2CCO)OCCO3 (configuration not stated)	0.304	2.73	0.962	> 50	0.518	> 50	0.168	1.61	0.175	48.6	0.377	1.93	0.617	> 35.3	0.224	> 50	1.27			> 50
Cc1cc(C(=O)c2ccccc2)c(C)c2c1[nH]c1ccc(Cl)cc12	0.112	> 42.1	0.126	> 100	0.0492	5.1	0.0393	1.93	0.0361	17.9	0.0485	> 100	0.715	> 78.3	0.0497	> 100	3.11	31.3	0.0399	18.7
CCN(CC)c1ccc(/C=C/C=C2\NC(=O)NC2=O)cc1	3.36	25.4	3.77	> 100	2.31	> 100	1.82	9.25	3.77	> 100	1.12	28.5	8.51	> 100	3.77	> 100	6.54	64.2	3.95	> 100
COc1cc(-c2csc(NC(=O)Nc3cc(Cl)cc(Cl)c3)n2)cc(OC)c1OC	1.77	3.35	1.87	4.22	2.33	6.97	2.02	4.41	2.01	5.42	1.85	3.94	2.81	10.6	1.97	4.02	1.73	3.16	1.61	3.11
CCCCCCCCCCCCCCCCCC(=O)Nc1ccn(C2OC(CO)C(O)C2O)c(=O)n1 (configuration not stated)		> 100		> 100		> 100		> 100		> 100		> 100		> 100		> 100		> 100		> 100
COc1ccccc1C(=O)N(C)c1ccc(Cl)c(C(=O)OC(C)C)c1		> 100		> 100		> 100		> 100		> 100		> 100		> 100		> 100		> 100		> 100
CC(=O)c1nc2ccccc2n1CC(=O)c1cccc(Cl)c1	0.647	> 31.8	4.33	> 100	0.246	> 100	11.6	> 100	0.335	> 100	0.231		1.12	> 71.7	0.278	> 100	3.22	99.7	0.416	7.29
CC(C)(C)c1ccc(NS(=O)(=O)c2ccc3nc(NC(=O)c4cnccn4)[nH]c3c2)cc1	3.17	11.5	5.01	18.3	0.774	14.6	1.79	12.6	0.715	13.4	1.92	8.59	4.29	19.2	2.37	14.4	8.84	23.4	1.11	13.2
COc1c(B(O)O)cc(F)cc1-c1nc2ccc3[nH]ncc3c2c2c1CCCC2	1.7	12.9	2.37	10.2	2.12	9.44	3.07	21.1	1.53	6.57	2.03	13.7	1.42	10.5	0.66	11.2	< 0.01	9.43	1.55	5.85
C=CC(COC(c1ccccc1)(c1ccccc1)c1ccccc1)N(CC)CC (configuration not stated)	6.54	20.2	4.48	19.2	2.6	13.9	1.93	7.05	2.8	7.21	3.88	18.2	11	24.9	2.32	7.95	3.19	10.8	3.61	12.5
O=C(NC(=S)Nc1cc(Cl)ccc1O)c1cccc(Br)c1	12.3	> 100	17.1	> 100	4.78	> 100	69.3	> 100	2.11	> 100	5.77	98	7.83	> 100	4.77	> 100	17.1	78.9	6.24	> 100
CCSc1ccc(C2C(Br)C(=O)N2c2cc(OC)c(OC)c(OC)c2)cc1 (configuration not stated)	0.349	> 100	0.639	> 100	0.21	18.2	0.351	12.3	0.0447	17	0.125	> 100	1.18	52.7	0.236	20.3	14.3	33.4	0.0973	30
CC1(C)C(=O)/C(=C\c2cccnc2)C[C@]2(C)[C@H]3CC[C@@H]4[C@@H](C(=O)/C=C/c5ccncc5)CC[C@@]4(C)[C@]3(C)CC[C@@H]12	1.68	3.24	2.82	9.2	1.71	4.85	2.41	8.64	0.804	4.62	2.28	7.12	2.41	6.53	1.81	4.59	2.7	5.29	1.61	3.46
CCN(c1cc(C#CCN2CCOCC2)cc(C(=O)NCc2c(C)cc(C)[nH]c2=O)c1C)C1CCC(N(C)CCOC)CC1 (configuration not stated)	> 100	> 100	> 100	> 100	> 100	> 100	> 100	> 100	> 100	> 100	> 100	> 100	> 100	> 100	> 100	> 100	> 100	> 100	> 100	> 100
